According to patent publication US9296704B2, “Substituted pyrimidines as protein kinase inhibitors” (CELGENE AVILOMICS RESEARCH, INC., priority 2007, dated 2016):

What was measured:
[1] = biological target: T1, EGFR (WT) (Homo sapiens, UniProt P00533); test: Omnia continuous-read kinase assay, EGFR (WT); assay type: biochemical; settings: read-out: EGFR inhibtion
T1 construct: purchased Invitrogen PV3872
How it was run: (§1)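 Enzyme pre-incubated 30 min at 27 °C with compound, then ATP/Y12-Sox peptide added; fluorescence (ex360/em485) read continuously 60 min in 20 mM Tris pH 7.5, 5 mM MgCl2, 0.2 mM DTT. WT: 5 nM enzyme, […]; T790M/L858R: 3 nM enzyme, […]. IC50 from initial velocities, variable-slope fit.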

[2] = biological target: T2, EGFR (T790M/L858R) (Homo sapiens, UniProt P00533, L858R/T790M); test: Omnia continuous-read kinase assay, EGFR (T790M/L858R); assay type: biochemical; settings: read-out: EGFR (T790M/L858R) inhibiton
T2 construct: purchased BPS Bioscience 40350
T2 sequence (P00533 25-1210 T790M/L858R): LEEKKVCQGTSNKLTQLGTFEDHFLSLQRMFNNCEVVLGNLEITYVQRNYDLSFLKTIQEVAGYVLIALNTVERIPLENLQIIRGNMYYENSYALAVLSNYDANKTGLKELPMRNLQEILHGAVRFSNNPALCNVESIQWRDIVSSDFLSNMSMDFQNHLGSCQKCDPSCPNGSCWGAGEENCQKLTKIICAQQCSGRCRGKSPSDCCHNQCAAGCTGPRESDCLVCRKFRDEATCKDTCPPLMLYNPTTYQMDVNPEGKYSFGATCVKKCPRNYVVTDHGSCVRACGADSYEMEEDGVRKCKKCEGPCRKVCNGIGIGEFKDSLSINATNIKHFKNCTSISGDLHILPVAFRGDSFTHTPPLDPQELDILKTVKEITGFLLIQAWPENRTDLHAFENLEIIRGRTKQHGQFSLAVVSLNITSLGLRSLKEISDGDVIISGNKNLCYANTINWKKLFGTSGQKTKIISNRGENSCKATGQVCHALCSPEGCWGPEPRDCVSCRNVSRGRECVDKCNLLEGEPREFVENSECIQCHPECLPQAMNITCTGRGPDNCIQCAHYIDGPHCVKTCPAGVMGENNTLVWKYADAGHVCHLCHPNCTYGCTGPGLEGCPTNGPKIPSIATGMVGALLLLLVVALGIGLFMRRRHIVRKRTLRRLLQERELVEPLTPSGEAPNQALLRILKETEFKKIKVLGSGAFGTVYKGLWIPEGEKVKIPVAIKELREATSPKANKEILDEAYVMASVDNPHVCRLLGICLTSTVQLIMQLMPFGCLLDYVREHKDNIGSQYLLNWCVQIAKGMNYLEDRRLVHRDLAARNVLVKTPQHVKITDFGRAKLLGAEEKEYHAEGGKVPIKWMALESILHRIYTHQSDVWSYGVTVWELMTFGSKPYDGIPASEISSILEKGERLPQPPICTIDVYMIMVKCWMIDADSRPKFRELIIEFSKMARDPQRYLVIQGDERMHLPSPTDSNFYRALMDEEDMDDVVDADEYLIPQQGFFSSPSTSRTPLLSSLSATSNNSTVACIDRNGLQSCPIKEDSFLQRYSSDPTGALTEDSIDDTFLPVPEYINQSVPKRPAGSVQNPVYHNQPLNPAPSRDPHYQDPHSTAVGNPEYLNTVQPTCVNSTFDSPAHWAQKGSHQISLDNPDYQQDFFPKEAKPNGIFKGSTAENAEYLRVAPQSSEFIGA
How it was run: as §1

[3] = biological target: ErbB1 (Homo sapiens, UniProt P00533); test: Z'-LYTE biochemical assay, ErbB1 kinase inhibition; settings: for inhibition at 0.01 µM: @ 10 nM; for inhibition at 0.1 µM: @ 100 nM
Sequence of ErbB1 (P00533 25-1210): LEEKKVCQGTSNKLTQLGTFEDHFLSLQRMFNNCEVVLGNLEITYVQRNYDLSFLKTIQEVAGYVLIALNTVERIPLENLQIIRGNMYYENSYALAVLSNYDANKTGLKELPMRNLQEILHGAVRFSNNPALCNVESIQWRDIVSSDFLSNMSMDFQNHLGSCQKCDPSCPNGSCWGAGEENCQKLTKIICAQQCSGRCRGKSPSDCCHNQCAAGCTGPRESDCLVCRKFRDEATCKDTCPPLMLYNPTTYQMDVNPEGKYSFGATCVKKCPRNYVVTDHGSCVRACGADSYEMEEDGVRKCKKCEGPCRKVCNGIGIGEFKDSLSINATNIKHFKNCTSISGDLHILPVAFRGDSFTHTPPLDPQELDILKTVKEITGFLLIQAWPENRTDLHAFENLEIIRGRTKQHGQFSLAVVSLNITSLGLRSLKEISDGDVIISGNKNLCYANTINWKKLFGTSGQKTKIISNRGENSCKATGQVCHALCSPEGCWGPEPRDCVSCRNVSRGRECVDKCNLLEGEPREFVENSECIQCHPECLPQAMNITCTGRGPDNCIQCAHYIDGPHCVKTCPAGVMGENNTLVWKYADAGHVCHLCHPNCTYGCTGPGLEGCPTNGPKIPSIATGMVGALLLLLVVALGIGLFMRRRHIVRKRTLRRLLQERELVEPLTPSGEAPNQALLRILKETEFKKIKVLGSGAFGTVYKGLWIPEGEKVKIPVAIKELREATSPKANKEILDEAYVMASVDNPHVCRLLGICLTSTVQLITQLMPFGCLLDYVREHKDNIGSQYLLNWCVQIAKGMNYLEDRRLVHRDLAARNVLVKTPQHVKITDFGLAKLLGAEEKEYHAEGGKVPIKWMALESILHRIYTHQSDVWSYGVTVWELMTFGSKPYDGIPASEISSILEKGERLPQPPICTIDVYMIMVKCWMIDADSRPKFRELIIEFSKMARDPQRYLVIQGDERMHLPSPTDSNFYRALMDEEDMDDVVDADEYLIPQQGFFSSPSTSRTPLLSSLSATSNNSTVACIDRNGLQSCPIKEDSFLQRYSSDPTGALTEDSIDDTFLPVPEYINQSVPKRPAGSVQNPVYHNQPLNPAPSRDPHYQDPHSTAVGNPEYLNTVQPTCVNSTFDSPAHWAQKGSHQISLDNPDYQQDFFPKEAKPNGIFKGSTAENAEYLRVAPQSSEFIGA
Procedure: (§2) Compounds of the present invention were assayed as inhibitors of one or more of ErbB1, ErbB2, and/or ErbB4 in a manner substantially similar to the method described by Invitrogen Corp (Invitrogen Corporation, 1600 Faraday Avenue, Carlsbad, Calif., CA; http://www.invitrogen.com/downloads/Z-LYTE_Brochure—1205.pdf) using the Z′-LYTE™ biochemical assay procedure or similar biochemical assay. The Z′-LYTE™ biochemical assay employs a fluorescence-based, coupled-enzyme format and is based on the differential sensitivity of phosphorylated and non-phosphorylated peptides to proteolytic cleavage.

[4] = biological target: ErbB4 (Homo sapiens, UniProt Q15303); test: Z'-LYTE biochemical assay, ErbB4 kinase inhibition
Procedure: as §2

[5] = biological target: BTK (Homo sapiens, UniProt Q06187); test: Omnia assay for potency against BTK; assay type: biochemical; settings: read-out: BTK Inhibition
How it was run: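 BTK (5 nM) was pre-incubated 30 min at 27° C with serially diluted compounds in Tris pH 7.5/MgCl2 buffer, then started with […] and Y5-Sox peptide 10 mM (ATP KMapp ~36 mM). Fluorescence (ex360/em485) was read continuously over 60 min. IC50 came from initial velocities using a variable-slope fit.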

[6] = biological target: T3, JAK3 (Homo sapiens, UniProt P52333); test: Omnia assay for potency against JAK3; assay type: biochemical; settings: read-out: JAK3 Inhibition
T3 sequence (P52333 1-1124): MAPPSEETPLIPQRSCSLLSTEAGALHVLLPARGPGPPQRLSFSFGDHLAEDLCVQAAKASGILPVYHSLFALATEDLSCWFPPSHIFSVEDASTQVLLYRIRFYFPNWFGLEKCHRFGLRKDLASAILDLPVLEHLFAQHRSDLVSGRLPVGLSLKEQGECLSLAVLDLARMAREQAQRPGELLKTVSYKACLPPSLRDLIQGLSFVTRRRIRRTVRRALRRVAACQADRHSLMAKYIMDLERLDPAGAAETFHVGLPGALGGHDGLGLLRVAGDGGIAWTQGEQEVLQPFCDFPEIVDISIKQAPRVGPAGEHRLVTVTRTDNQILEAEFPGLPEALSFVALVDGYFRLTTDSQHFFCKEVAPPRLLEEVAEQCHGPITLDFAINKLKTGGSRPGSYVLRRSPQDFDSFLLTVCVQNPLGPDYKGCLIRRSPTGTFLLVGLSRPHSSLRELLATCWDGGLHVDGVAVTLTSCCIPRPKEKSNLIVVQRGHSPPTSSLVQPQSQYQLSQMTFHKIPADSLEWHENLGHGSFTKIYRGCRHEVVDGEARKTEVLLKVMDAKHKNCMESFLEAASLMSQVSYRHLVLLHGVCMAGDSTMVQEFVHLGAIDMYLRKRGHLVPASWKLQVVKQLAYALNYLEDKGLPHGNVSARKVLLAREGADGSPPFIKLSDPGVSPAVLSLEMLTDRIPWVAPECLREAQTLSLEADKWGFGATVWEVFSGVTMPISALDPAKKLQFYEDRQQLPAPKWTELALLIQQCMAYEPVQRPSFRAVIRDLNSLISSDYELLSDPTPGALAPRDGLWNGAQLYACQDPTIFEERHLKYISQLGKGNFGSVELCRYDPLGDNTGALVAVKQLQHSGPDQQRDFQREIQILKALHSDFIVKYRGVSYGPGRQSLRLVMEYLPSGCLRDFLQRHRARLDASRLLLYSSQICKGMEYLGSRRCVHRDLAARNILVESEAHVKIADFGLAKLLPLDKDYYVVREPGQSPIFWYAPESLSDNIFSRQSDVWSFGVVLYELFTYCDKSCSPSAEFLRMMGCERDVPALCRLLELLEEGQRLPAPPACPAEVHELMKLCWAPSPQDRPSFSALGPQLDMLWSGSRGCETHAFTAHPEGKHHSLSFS
How it was run: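 Continuous-read Omnia kinase assay with 5 nM JAK3, 5 μM ATP (near apparent Km) and 5 μM Y12-Sox peptide in Tris pH 7.5/MgCl2 buffer; enzyme pre-incubated with compound 30 min at 27 °C. Fluorescence (ex360/em485) read over 60 min; initial velocities fitted against inhibitor concentration to give IC50.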

[7] = biological target: ErbB2 (Homo sapiens, UniProt P04626); test: Z'-LYTE biochemical assay, ErbB2 kinase inhibition; settings: for inhibition at 0.1 µM: @ 100 nM
Sequence of ErbB2 (P04626 23-1255): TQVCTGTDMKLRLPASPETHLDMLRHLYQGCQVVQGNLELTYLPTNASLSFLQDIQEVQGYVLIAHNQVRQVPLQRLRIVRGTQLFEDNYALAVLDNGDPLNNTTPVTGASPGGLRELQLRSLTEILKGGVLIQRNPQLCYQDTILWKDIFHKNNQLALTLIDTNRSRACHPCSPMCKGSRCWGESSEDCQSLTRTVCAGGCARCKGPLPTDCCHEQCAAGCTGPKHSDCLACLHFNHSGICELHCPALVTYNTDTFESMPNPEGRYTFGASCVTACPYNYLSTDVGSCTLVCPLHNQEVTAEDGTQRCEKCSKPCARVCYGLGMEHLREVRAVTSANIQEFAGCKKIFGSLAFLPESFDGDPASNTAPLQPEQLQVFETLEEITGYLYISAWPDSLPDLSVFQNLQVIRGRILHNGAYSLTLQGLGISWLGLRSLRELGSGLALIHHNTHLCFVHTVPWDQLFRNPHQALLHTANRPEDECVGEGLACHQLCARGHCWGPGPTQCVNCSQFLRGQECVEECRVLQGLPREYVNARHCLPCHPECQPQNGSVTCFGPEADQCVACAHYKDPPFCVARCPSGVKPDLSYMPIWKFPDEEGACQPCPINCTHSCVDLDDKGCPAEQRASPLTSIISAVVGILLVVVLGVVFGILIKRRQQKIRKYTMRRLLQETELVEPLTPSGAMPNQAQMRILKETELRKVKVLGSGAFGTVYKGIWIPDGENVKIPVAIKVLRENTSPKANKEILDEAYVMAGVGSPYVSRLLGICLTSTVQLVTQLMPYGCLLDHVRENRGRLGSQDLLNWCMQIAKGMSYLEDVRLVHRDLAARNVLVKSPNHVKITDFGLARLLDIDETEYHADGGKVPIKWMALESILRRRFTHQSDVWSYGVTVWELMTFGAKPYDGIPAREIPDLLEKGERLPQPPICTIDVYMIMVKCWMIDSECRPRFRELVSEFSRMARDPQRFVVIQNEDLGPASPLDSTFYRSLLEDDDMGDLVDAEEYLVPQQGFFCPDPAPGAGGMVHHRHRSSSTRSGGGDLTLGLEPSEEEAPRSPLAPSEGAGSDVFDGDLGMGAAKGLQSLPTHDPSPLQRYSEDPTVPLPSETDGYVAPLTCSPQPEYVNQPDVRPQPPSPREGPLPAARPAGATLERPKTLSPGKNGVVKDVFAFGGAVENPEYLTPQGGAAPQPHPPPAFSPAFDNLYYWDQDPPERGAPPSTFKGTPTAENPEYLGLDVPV
Procedure: as §2

[8] = test system: BTK signaling in Ramos cells; test: BTK Ramos cellular assay (PLCγ2 phosphorylation); assay type: cell-based; settings: Homo sapiens; Ramos cells, PLCγ2 phosphorylation; read-out: BTK Inhibition
Procedure: Compounds 1-13 and (I-52) were assayed in Ramos human Burkitt lymphoma cells. Ramos cells were grown in suspension in T225 flasks, spun down, resuspended in 50 mls serum-free media and incubated for 1 hour. Compound was added to Ramos cells in serum free media to a final concentration of 1, 0.1, 0.01, or 0.001 μM. Ramos cells were incubated with compound for 1 hour, washed again and resuspended in 100 ul serum-free media. Cells were then stimulated with 1 μg of goat F(ab′)2 Anti-Human IgM and incubated on ice for 10 minutes to activate B cell receptor signaling pathways. After 10 minutes, the cells were washed once with PBS and then lysed on ice with Invitrogen Cell Extraction buffer. 16 μg total protein from lysates was loaded on gels and blots were probed for phosphorylation of the BTK substrate PLCγ2. […] Additional dose response inhibition of BTK signaling with I-13 is depicted in FIG. 9.

[9] = biological target: T4, ITK (Homo sapiens, UniProt Q08881); test: Omnia assay for potency against ITK; assay type: biochemical; settings: read-out: ITK inhibition
T4 sequence (Q08881 1-620): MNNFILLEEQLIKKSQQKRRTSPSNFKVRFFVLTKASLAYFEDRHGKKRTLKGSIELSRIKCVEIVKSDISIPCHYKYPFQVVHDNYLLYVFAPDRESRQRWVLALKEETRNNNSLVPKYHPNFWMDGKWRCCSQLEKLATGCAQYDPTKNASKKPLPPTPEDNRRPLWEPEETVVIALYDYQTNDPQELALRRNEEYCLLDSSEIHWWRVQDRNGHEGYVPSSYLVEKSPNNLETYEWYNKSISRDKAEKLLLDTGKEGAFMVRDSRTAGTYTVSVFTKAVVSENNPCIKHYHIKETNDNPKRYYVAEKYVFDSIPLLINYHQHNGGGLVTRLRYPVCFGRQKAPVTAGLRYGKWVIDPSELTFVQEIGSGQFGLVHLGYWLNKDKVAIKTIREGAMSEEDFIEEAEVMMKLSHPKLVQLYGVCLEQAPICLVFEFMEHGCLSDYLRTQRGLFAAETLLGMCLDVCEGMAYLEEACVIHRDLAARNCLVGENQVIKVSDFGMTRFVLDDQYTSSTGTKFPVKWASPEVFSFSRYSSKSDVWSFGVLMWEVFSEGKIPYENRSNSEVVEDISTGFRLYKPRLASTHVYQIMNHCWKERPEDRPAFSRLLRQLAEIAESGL
From the text: The protocol below describes continuous-read kinase assays to measure inherent potency of compounds against active forms of EGFR (WT) and EGFR (T790M/L858R) enzymes. The mechanics of the assay platform are best described by the vendor (Invitrogen, Carlsbad, Calif.) on their website at the following URL: http://www.invitrogen.com/content.cfm?pageid=11338 or http://www.invitrogen.com/site/us/en/home/Products-and-Services/Applications/Drug-Discovery/Target-and-Lead-Identification-and-Validation/KinaseBiology/KB-Misc/Biochemical-Assays/Omnia-Kinase-Assays.html.
Briefly, 10× stocks of EGFR-WT (PV3872) from Invitrogen and EGFR-T790M/L858R (40350) from BPS Bioscience, San Diego, Calif., 1.13×ATP (AS001A) and appropriate Tyr-Sox conjugated peptide substrates (KCZI001) were prepared in 1× kinase reaction buffer consisting of 20 mM Tris, pH 7.5, 5 mM MgCl2, 1 mM EGTA, 5 mM β-glycerophosphate, 5% glycerol (10× stock, KB002A) and 0.2 mM DTT (DS001A). 5 μL of each enzyme were pre-incubated in a Corning (#3574) 384-well, white, non-binding surface microtiter plate (Corning, NY) for 30 min. at 27° C. with a 0.5 μL volume of 50% DMSO and serially diluted compounds prepared in 50% DMSO. Kinase reactions were started with the addition of 45 μL of the ATP/Tyr-Sox peptide substrate mix and monitored every 30-90 seconds for 60 minutes at λex360/λem485 in a Synergy^4 plate reader from BioTek (Winooski, Vt.). At the conclusion of each assay, progress curves from each well were examined for linear reaction kinetics and fit statistics (R^2, 95% confidence interval, absolute sum of squares). Initial velocity (0 minutes to ˜30 minutes) from each reaction was determined from the slope of a plot of relative fluorescence units vs time (minutes) and then plotted against inhibitor concentration to estimate IC50 from log [Inhibitor] vs Response, Variable Slope model in GraphPad Prism from GraphPad Software (San Diego, Calif.).
This example describes continuous-read kinase assays to measure inherent potency of compound against active forms of ITK enzymes as described in Example 10 above except that the modified ITK-optimized reagent conditions are: • [ITK]=10 nM, [ATP]=25 μM, [Y6-Sox]=10 μM (ATP KMapp=33 μM).

T1 sequence (P00533 25-1210): as the sequence (P00533 25-1210) above

Row | SMILES | IC50 [1] [nM] | IC50 [2] [nM] | inhibition at 1 µM [3] [%] | inhibition at 1 µM [4] [%] | IC50 [5] [nM] | IC50 [6] [nM] | inhibition at 0.01 µM [3] [%] | inhibition at 1 µM [7] [%] | inhibition at 0.1 µM [3] [%] | IC50 [8] [nM] | IC50 [9] [nM] | inhibition at 0.01 µM ([7]; @ 10 nM) [%] | inhibition at 0.1 µM [7] [%] | inhibition at 0.01 µM ([4]; @ 10 nM) [%] | inhibition at 0.1 µM ([4]; @ 100 nM) [%]
1 | C=CC(=O)Nc1cccc(Nc2cc(Nc3ccc(OCc4cccc(F)c4)c(Cl)c3)ncn2)c1 [I-6, N-{3-[6-(3-chloro-4-(3-fluorophenyl)methoxyphenylamino)-pyrimidin-4-ylamino]phenyl}-2-propenamide] | 10 to 100 | 10 to 100 |  | 97 | 100 to 1000 | 1000 to 10000 | 49 | 84 | 100 |  |  |  |  |  | 
2 | C=CC(=O)Nc1cccc(Nc2cc(Nc3ccc(F)c(Cl)c3)ncn2)c1 [I-2, N-{3-[6-(3-chloro-4-fluorophenylamino)-pyrimidin-4-ylamino]phenyl}-2-propenamide] | ≤ 10 | ≤ 10 |  | 75 | 10 to 100 | ≤ 10 | 75 | 96 | 98 |  |  |  | 39 |  | 
3 | C/C=C/C(=O)Nc1cccc(Nc2cc(Nc3cccc(Br)c3)ncn2)c1 [I-8, (E)-N-(3-[6-(3-bromophenylamino)-pyrimidin-4-ylamino]-phenyl)-2-butenamide] | ≤ 10 | 1000 to 10000 |  | 57 | ≥ 10000 | 1000 to 10000 | 83 |  |  |  |  |  |  |  | 

Continued, values first:

Row | IC50 [1] [nM] | IC50 [2] [nM] | inhibition at 1 µM [3] [%] | inhibition at 1 µM [4] [%] | IC50 [5] [nM] | IC50 [6] [nM] | inhibition at 0.01 µM [3] [%] | inhibition at 1 µM [7] [%] | inhibition at 0.1 µM [3] [%] | IC50 [8] [nM] | IC50 [9] [nM] | inhibition at 0.01 µM ([7]; @ 10 nM) [%] | inhibition at 0.1 µM [7] [%] | inhibition at 0.01 µM ([4]; @ 10 nM) [%] | inhibition at 0.1 µM ([4]; @ 100 nM) [%] | SMILES
4 | ≤ 10 | 100 to 1000 | 100 | 75 | 100 to 1000 | 100 to 1000 |  |  |  |  |  |  |  |  |  | C=CC(=O)Nc1cccc(Nc2cc(Oc3cccc(C(F)(F)F)c3)ncn2)c1 [I-9]
5 | ≤ 10 | 10 to 100 |  | 78 | ≤ 10 | ≤ 10 | 100 | 86 |  |  |  |  |  |  |  | C=CC(=O)Nc1cccc(Nc2cc(Nc3cccc(C)c3)ncn2)c1 [I-4, N-{3-[6-(3-methylphenylamino)-pyrimidin-4-ylamino]phenyl}-2-propenamide]
6 | ≤ 10 | ≤ 10 |  | 94 | 10 to 100 | 10 to 100 |  | 91 |  |  |  |  |  |  |  | CN(C)C/C=C/C(=O)Nc1cccc(Nc2cc(Nc3ccc(F)c(Cl)c3)ncn2)c1 [I-18, (E)-N-{3-[6-(3-chloro-4-fluorophenylamino)-pyrimidin-4-ylamino]phenyl}-4-dimethylamino-2-butenamide]
7 | ≤ 10 |  |  |  | ≤ 10 |  |  |  |  | ≤ 10 | ≥ 10000 |  |  |  |  | C=CC(=O)Nc1cccc(Nc2cc(Oc3ccc4c(c3)OCCO4)ncn2)n1 [I-95, N-(6-(6-(2,3-dihydrobenzo[b][1,4]dioxin-6-yloxy)pyrimidin-4-ylamino)pyridin-2-yl)acrylamide]
8 | ≤ 10 | 10 to 100 | 98 |  | 10 to 100 | 10 to 100 |  |  |  |  |  | 24 | 87 | 26 | 93 | C=CC(=O)Nc1cccc(Nc2cc(Nc3ccc(OCc4ccccn4)c(Cl)c3)ncn2)c1 [I-16, N-(3-(6-(3-chloro-4-(pyridin-2-ylmethoxy)phenylamino)pyrimidin-4-ylamino)phenyl)-2-propenamide]
